# Measurements taken from US20090054316A1, “AGENT FOR CONTROL OF FUNCTION OF ANTIGEN-PRESENTING CELL” (RIKEN, priority 2005, published 2009).
# Legend:
# [1] = tested on: bone marrow-derived dendritic cells (BMDC); experiment: Expression of MHC class I, class II and CD86 molecules on the cell surface of dendritic cells treated with a zinc ion chelator (FACS); format: cell-based, mouse; conditions: for expression of MHC class II molecule on BMDC: TPEN 0-2 μM for 6 to 12 hours (dose and treatment time dependency), LPS 100 ng/mL as activation control, FACS
# Description: Dendritic cells, a type of antigen-presenting cells, were treated with N,N,N′,N′-tetrakis(2-pyridylmethyl)ethylenediamine (TPEN), a zinc ion chelator, and examined for the expression of MHC class I molecule, class II molecule and CD86 molecule on the cell surface.
# (§1) Bone marrow cells were obtained from a C57BL/6 mouse (obtained from Clea Japan) and subjected to cell culture using an RPMI medium (SIGMA, R8758) supplemented with 10% FCS (EQUITECH-BIO Inc., #SFB-30-1388) and granulocyte macrophage colony stimulating factor (GM-CSF) in a 5% CO2 environment at 37° C. for 6 days to induce the differentiation of bone marrow-derived dendritic cells (BMDC). To this BMDC, TPEN (SIGMA, P4413) was added for 6 hours to 12 hours to obtain concentrations of 0-2 μM in the medium. Also prepared was a group in which lipopolysaccharide (LPS; 100 ng/mL; SIGMA, L2637, E. Coli O55:B5) was added for control of antigen-presenting cell activation. […] When the cells were treated with the zinc ion chelator, the expression of MHC class II molecule on BMDC was enhanced as with LPS.
# dendritic cell = experiment: Dendritic cell activation or inactivation, same in vitro system as Examples 1 and 2; format: cell-based, mouse; conditions: treatment with 1-10 μM
# Description: as §1
# In the same experiment (in vitro system) as Examples 1 and 2, dendritic cell activation or inactivation was observed by a treatment with 1-10 μM zinc ion or TPEN.
# [2] = dendritic cells treated with zinc ion chelator, FIG. 1
Compound,expression of MHC class II molecule on BMDC [1],"expression of CD86 molecule on the cell surface [1, 2]","expression of MHC class I molecule on the cell surface [1, 2]",dendritic cell activation or inactivation (dendritic cell)
"c1ccc(CN(CCN(Cc2ccccn2)Cc2ccccn2)Cc2ccccn2)nc1 [TPEN, N,N,N′,N′-tetrakis(2-pyridylmethyl)ethylenediamine]",enhanced,enhanced,enhanced,observed
"O=S(=O)([O-])[O-].[Zn+2] [zinc ion, ZnSO4]",–,–,–,observed
lipopolysaccharide [LPS],enhanced,–,–,–
